Laboratory results from PubChem BioAssay (NCI).
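Tested at 5 concentrations; 48 h exposure; 96-well plates; endpoints linearly interpolated, else capped at highest concentration. GI50 marks 50% less growth. TGI denotes the concentration required for complete inhibition of growth.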

How the values were obtained:
Experiment in all cases: growth of human tumour cells (NCI), 48 h
786-0 renal = tested on: 786-0 renal
A498 renal = tested on: A498 renal
A549 NSCLC = tested on: A549 NSCLC
ACHN renal = tested on: ACHN renal
BT-549 breast = tested on: BT-549 breast
CAKI-1 renal = tested on: CAKI-1 renal
CCRF-CEM leukemia = tested on: CCRF-CEM leukemia
COLO 205 colon = tested on: COLO 205 colon
DU-145 prostate = tested on: DU-145 prostate
EKVX NSCLC = tested on: EKVX NSCLC
HCC-2998 colon = tested on: HCC-2998 colon
HCT-116 colon = tested on: HCT-116 colon
HCT-15 colon = tested on: HCT-15 colon
HL-60(TB) leukemia = tested on: HL-60(TB) leukemia
HOP-62 NSCLC = tested on: HOP-62 NSCLC
HOP-92 NSCLC = tested on: HOP-92 NSCLC
HS 578T breast = tested on: HS 578T breast
HT29 colon = tested on: HT29 colon
IGROV1 ovarian = tested on: IGROV1 ovarian
K-562 leukemia = tested on: K-562 leukemia
KM12 colon = tested on: KM12 colon
LOX IMVI melanoma = tested on: LOX IMVI melanoma
M14 melanoma = tested on: M14 melanoma
MALME-3M melanoma = tested on: MALME-3M melanoma
MCF7 breast = tested on: MCF7 breast
MDA-MB-231 breast = tested on: MDA-MB-231 breast
MDA-MB-435 = tested on: MDA-MB-435
MOLT-4 leukemia = tested on: MOLT-4 leukemia
NCI-H226 lung = tested on: NCI-H226 lung
NCI-H23 lung = tested on: NCI-H23 lung
NCI-H460 lung = tested on: NCI-H460 lung
NCI-H522 lung = tested on: NCI-H522 lung
NCI/ADR-RES ovarian = tested on: NCI/ADR-RES ovarian
OVCAR-3 ovarian = tested on: OVCAR-3 ovarian
OVCAR-4 ovarian = tested on: OVCAR-4 ovarian
OVCAR-5 ovarian = tested on: OVCAR-5 ovarian
OVCAR-8 ovarian = tested on: OVCAR-8 ovarian
PC-3 prostate = tested on: PC-3 prostate
RPMI-8226 leukemia = tested on: RPMI-8226 leukemia
RXF 393 renal = tested on: RXF 393 renal
SF-268 CNS = tested on: SF-268 CNS
SF-295 CNS = tested on: SF-295 CNS
SF-539 CNS = tested on: SF-539 CNS
SK-MEL-2 melanoma = tested on: SK-MEL-2 melanoma
SK-MEL-28 melanoma = tested on: SK-MEL-28 melanoma
SK-MEL-5 melanoma = tested on: SK-MEL-5 melanoma
SK-OV-3 ovarian = tested on: SK-OV-3 ovarian
SN12C renal = tested on: SN12C renal
SNB-19 CNS = tested on: SNB-19 CNS
SNB-75 CNS = tested on: SNB-75 CNS
SW-620 colon = tested on: SW-620 colon
T-47D breast = tested on: T-47D breast
TK-10 renal = tested on: TK-10 renal
U251 CNS = tested on: U251 CNS
UACC-257 melanoma = tested on: UACC-257 melanoma
UACC-62 melanoma = tested on: UACC-62 melanoma
UO-31 renal = tested on: UO-31 renal

For `C#CC1(O)C(COP(=O)(O)OCC(COP(=O)(O)OCC2OC(n3cc(F)c(=O)[nH]c3=O)CC2O)OCCCCCCCCCCCCCCCCCC)OC(n2ccc(N)nc2=O)C1O` (configuration not stated), the GI50 (786-0 renal) was 37.9 nM, the TGI (786-0 renal) was 17000 nM and the GI50 (A498 renal) was 421 nM. It also gave a TGI (A498 renal) of 12100 nM, a GI50 (A549 NSCLC) of 117 nM and a TGI (A549 NSCLC) greater than 68300 nM. For the same molecule, the GI50 (ACHN renal) was 149 nM, the TGI (ACHN renal) was greater than 100000 nM and the GI50 (BT-549 breast) was 155 nM. For the same molecule, the TGI (BT-549 breast) was 5410 nM, the GI50 (CAKI-1 renal) was 29.3 nM and the TGI (CAKI-1 renal) was 1160 nM. For the same molecule, the GI50 (CCRF-CEM leukemia) was 217 nM, the TGI (CCRF-CEM leukemia) was greater than 39700 nM and the GI50 (COLO 205 colon) was less than 20.2 nM. For the same molecule, the TGI (COLO 205 colon) was 1070 nM, the GI50 (DU-145 prostate) was 106 nM and the TGI (DU-145 prostate) was greater than 71900 nM. The GI50 (EKVX NSCLC) was 618 nM, the TGI (EKVX NSCLC) was 25800 nM and the GI50 (HCC-2998 colon) was 75.2 nM. For the same molecule, the TGI (HCC-2998 colon) was 1260 nM, the GI50 (HCT-116 colon) was less than 10 nM and the TGI (HCT-116 colon) was greater than 40700 nM. The GI50 (HCT-15 colon) was 134 nM, the TGI (HCT-15 colon) was greater than 100000 nM and the GI50 (HL-60(TB) leukemia) was 982 nM. For the same molecule, the TGI (HL-60(TB) leukemia) was greater than 100000 nM, the GI50 (HOP-62 NSCLC) was 63.1 nM and the TGI (HOP-62 NSCLC) was 10600 nM. It also gave a GI50 (HOP-92 NSCLC) of 764 nM, a GI50 (HS 578T breast) of 2160 nM and a TGI (HS 578T breast) greater than 52800 nM. The GI50 (HT29 colon) was 104 nM, the TGI (HT29 colon) was greater than 71900 nM and the GI50 (IGROV1 ovarian) was 236 nM. The GI50 (K-562 leukemia) was 338 nM, the TGI (K-562 leukemia) was greater than 100000 nM and the GI50 (KM12 colon) was 93.3 nM. It also gave a TGI (KM12 colon) greater than 34100 nM, a GI50 (LOX IMVI melanoma) of 76.5 nM and a TGI (LOX IMVI melanoma) greater than 27700 nM. The GI50 (M14 melanoma) was 215 nM, the TGI (M14 melanoma) was 6450 nM and the GI50 (MALME-3M melanoma) was 102 nM. The TGI (MALME-3M melanoma) was 5360 nM, the GI50 (MCF7 breast) was less than 10 nM and the TGI (MCF7 breast) was greater than 32000 nM. It also gave a GI50 (MDA-MB-231 breast) of 320 nM, a GI50 (MDA-MB-435) of 566 nM and a TGI (MDA-MB-435) greater than 27200 nM. The GI50 (MOLT-4 leukemia) was 348 nM, the TGI (MOLT-4 leukemia) was greater than 100000 nM and the GI50 (NCI-H226 lung) was 113 nM. The GI50 (NCI-H23 lung) was 280 nM, the TGI (NCI-H23 lung) was 8720 nM and the GI50 (NCI-H460 lung) was less than 10 nM. For the same molecule, the GI50 (NCI-H522 lung) was 712 nM, the TGI (NCI-H522 lung) was greater than 34800 nM and the GI50 (NCI/ADR-RES ovarian) was 147 nM. For the same molecule, the TGI (NCI/ADR-RES ovarian) was greater than 40400 nM, the GI50 (OVCAR-3 ovarian) was 448 nM and the GI50 (OVCAR-4 ovarian) was 992 nM. The TGI (OVCAR-4 ovarian) was greater than 100000 nM, the GI50 (OVCAR-5 ovarian) was 5360 nM and the TGI (OVCAR-5 ovarian) was greater than 52600 nM. It also gave a GI50 (OVCAR-8 ovarian) of 169 nM, a TGI (OVCAR-8 ovarian) greater than 36500 nM and a GI50 (PC-3 prostate) of 39.7 nM. The TGI (PC-3 prostate) was 6720 nM, the GI50 (RPMI-8226 leukemia) was 111 nM and the TGI (RPMI-8226 leukemia) was greater than 100000 nM. It also gave a GI50 (RXF 393 renal) of 393 nM, a TGI (RXF 393 renal) of 6330 nM and a GI50 (SF-268 CNS) of 102 nM. For the same molecule, the TGI (SF-268 CNS) was 9450 nM, the GI50 (SF-295 CNS) was 55.5 nM and the TGI (SF-295 CNS) was 16300 nM. It also gave a GI50 (SF-539 CNS) of less than 10 nM, a TGI (SF-539 CNS) of 3330 nM and a GI50 (SK-MEL-2 melanoma) of 481 nM. It also gave a TGI (SK-MEL-2 melanoma) of 6240 nM, a GI50 (SK-MEL-28 melanoma) of 7400 nM and a TGI (SK-MEL-28 melanoma) greater than 100000 nM. The GI50 (SK-MEL-5 melanoma) was 275 nM, the TGI (SK-MEL-5 melanoma) was 9290 nM and the GI50 (SK-OV-3 ovarian) was 10100 nM. The TGI (SK-OV-3 ovarian) was 76300 nM, the GI50 (SN12C renal) was less than 22.9 nM and the TGI (SN12C renal) was 1930 nM. For the same molecule, the GI50 (SNB-19 CNS) was 313 nM, the TGI (SNB-19 CNS) was greater than 57200 nM and the GI50 (SNB-75 CNS) was 713 nM. It also gave a TGI (SNB-75 CNS) greater than 55300 nM, a GI50 (SW-620 colon) of 26.9 nM and a TGI (SW-620 colon) greater than 100000 nM. For the same molecule, the GI50 (T-47D breast) was 3720 nM, the TGI (T-47D breast) was greater than 51300 nM and the GI50 (TK-10 renal) was 241 nM. For the same molecule, the TGI (TK-10 renal) was greater than 29000 nM, the GI50 (U251 CNS) was 135 nM and the TGI (U251 CNS) was greater than 100000 nM. It also gave a GI50 (UACC-257 melanoma) of 448 nM, a TGI (UACC-257 melanoma) greater than 31600 nM and a GI50 (UACC-62 melanoma) of 196 nM. It also gave a TGI (UACC-62 melanoma) of 2690 nM and a GI50 (UO-31 renal) of 461 nM.
